Target: human GLP-1R (Homo sapiens, UniProt P43220)
Experiment: GLP-1R Cell Assay 1: cAMP Hunter CHO-K1 GLP1R Gs cell line, HitHunter cAMP assay
Assay type: cell-based
Details: Table 2; cAMP Hunter CHO-K1 GLP1R Gs cells; percent activity normalized to Exendin-4
How it was run: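 CHO-K1 cells overexpressing wild-type human GLP-1R treated with 3-fold serially diluted compounds for 30-60 min at 37 °C. cAMP measured by EFC competitive luminescent immunoassay; activity normalised to Exendin-4, duplicate runs, EC50 by nonlinear regression.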

Chain of human GLP-1R (P43220 24-463): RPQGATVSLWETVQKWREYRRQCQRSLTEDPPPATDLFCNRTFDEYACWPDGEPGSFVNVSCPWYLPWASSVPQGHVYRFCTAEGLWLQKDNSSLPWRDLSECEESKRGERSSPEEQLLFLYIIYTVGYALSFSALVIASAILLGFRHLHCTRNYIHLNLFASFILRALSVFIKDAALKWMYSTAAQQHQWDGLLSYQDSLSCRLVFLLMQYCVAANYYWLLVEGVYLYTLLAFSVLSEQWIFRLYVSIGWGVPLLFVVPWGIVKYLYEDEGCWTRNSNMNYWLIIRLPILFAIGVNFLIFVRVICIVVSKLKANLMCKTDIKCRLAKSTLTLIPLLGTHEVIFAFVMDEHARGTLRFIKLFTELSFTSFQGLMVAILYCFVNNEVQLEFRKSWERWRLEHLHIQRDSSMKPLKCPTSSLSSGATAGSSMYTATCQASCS

EC50 [nM] | Compound
135 | N#Cc1ccc2c(c1)CN(c1cccc(N3CCN(Cc4nc5ccc(C(=O)O)cc5n4C[C@@H]4CCO4)CC3)n1)CCC2 [Compound 66, (S)-2-((4-(6-(8-cyano-1,3,4,5-tetrahydro-2H-benzo[c]azepin-2-yl)pyridin-2-yl)piperazin-1-yl)methyl)-1-(oxetan-2-ylmethyl)-1H-benzo[d]imidazole-6-carboxylic acid]
2.03 | O=C(O)c1ccc2nc(CN3CCN(c4cccc(OCc5cc6ccccc6o5)n4)CC3)n(C[C@@H]3CCO3)c2c1 [Compound 68, (S)-2-((4-(6-(benzofuran-2-ylmethoxy)pyridin-2-yl)piperazin-1-yl)methyl)-1-(oxetan-2-ylmethyl)-1H-benzo[d]imidazole-6-carboxylic acid]
4.6 | Cn1cnc2ccc(COc3cccc(N4CCN(Cc5nc6ccc(C(=O)O)cc6n5C[C@@H]5CCO5)CC4)n3)cc21 [Compound 72, (S)-2-((4-(6-((1-methyl-1H-benzo[d]imidazol-6-yl)methoxy)pyridin-2-yl)piperazin-1-yl)methyl)-1-(oxetan-2-ylmethyl)-1H-benzo[d]imidazole-6-carboxylic acid]
1.43 | N#Cc1cc(F)c2c(c1)CCN(c1cccc(N3CCN(Cc4nc5ccc(C(=O)O)cc5n4C[C@@H]4CCO4)CC3)n1)C2 [Compound 73, (S)-2-((4-(6-(6-cyano-8-fluoro-3,4-dihydroisoquinolin-2(1H)-yl)pyridin-2-yl)piperazin-1-yl)methyl)-1-(oxetan-2-ylmethyl)-1H-benzo[d]imidazole-6-carboxylic acid]
37.9 | N#Cc1cccc2c1CN(c1cccc(N3CCN(Cc4nc5ccc(C(=O)O)cc5n4C[C@@H]4CCO4)CC3)n1)CCC2 [Compound 80, (S)-2-((4-(6-(9-cyano-1,3,4,5-tetrahydro-2H-benzo[c]azepin-2-yl)pyridin-2-yl)piperazin-1-yl)methyl)-1-(oxetan-2-ylmethyl)-1H-benzo[d]imidazole-6-carboxylic acid]
229 | C[C@@H]1c2ccc(C#N)cc2CCN1c1cccc(N2CCN(Cc3nc4ccc(C(=O)O)cc4n3C[C@@H]3CCO3)CC2)n1 [Compound 83]
102 | C[C@H]1c2ccc(C#N)cc2CCN1c1cccc(N2CCN(Cc3nc4ccc(C(=O)O)cc4n3C[C@@H]3CCO3)CC2)n1 [Compound 84]
6.11 | O=C(O)c1ccc2nc(CN3CCN(c4cccc(OCc5cc6ccccc6cn5)n4)CC3)n(C[C@@H]3CCO3)c2c1 [Compound 85, (S)-2-((4-(6-(isoquinolin-3-ylmethoxy)pyridin-2-yl)piperazin-1-yl)methyl)-1-(oxetan-2-ylmethyl)-1H-benzo[d]imidazole-6-carboxylic acid]
75.3 | Cn1cc(COc2cccc(N3CCN(Cc4nc5ccc(C(=O)O)cc5n4C[C@@H]4CCO4)CC3)n2)cn1 [Compound 86, (S)-2-((4-(6-((1-methyl-1H-pyrazol-4-yl)methoxy)pyridin-2-yl)piperazin-1-yl)methyl)-1-(oxetan-2-ylmethyl)-1H-benzo[d]imidazole-6-carboxylic acid]
239 | O=C(O)c1ccc2nc(CN3CCN(c4cccc(OCC5CCC5)n4)CC3)n(C[C@@H]3CCO3)c2c1 [Compound 88, (S)-2-((4-(6-(cyclobutylmethoxy)pyridin-2-yl)piperazin-1-yl)methyl)-1-(oxetan-2-ylmethyl)-1H-benzo[d]imidazole-6-carboxylic acid]
> 500 | N#Cc1ccc(COc2cccc(C3CCN([C@@H]4CCCCn5c4nc4ccc(C(=O)O)cc45)CC3)n2)c(F)c1 [Compound 90, (R)-6-(4-(6-((4-cyano-2-fluorobenzyl)oxy)pyridin-2-yl)piperidin-1-yl)-7,8,9,10-tetrahydro-6H-benzo[4,5]imidazo[1,2-a]azepine-2-carboxylic acid]

More lines, now with the values behind:

Compound | EC50 [nM]
CN(Cc1ccc(C(N)=O)cc1)c1cccc(N2CCN(Cc3nc4ccc(C(=O)O)cc4n3C[C@@H]3CCO3)CC2)n1 [Compound 64, (S)-2-((4-(6-((4-carbamoylbenzyl)(methyl)amino)pyridin-2-yl)piperazin-1-yl)methyl)-1-(oxetan-2-ylmethyl)-1H-benzo[d]imidazole-6-carboxylic acid] | > 500
O=C(O)c1ccc2nc(CN3CCN(c4cccc(OCc5cc6ccccc6s5)n4)CC3)n(C[C@@H]3CCO3)c2c1 [Compound 65, (S)-2-((4-(6-(benzo[b]thiophen-2-ylmethoxy)pyridin-2-yl)piperazin-1-yl)methyl)-1-(oxetan-2-ylmethyl)-1H-benzo[d]imidazole-6-carboxylic acid] | 0.998
O=C(O)c1ccc2nc(CN3CCN(c4cccc(OCc5nc6ccccc6o5)n4)CC3)n(C[C@@H]3CCO3)c2c1 [Compound 67, (S)-2-((4-(6-(benzo[d]oxazol-2-ylmethoxy)pyridin-2-yl)piperazin-1-yl)methyl)-1-(oxetan-2-ylmethyl)-1H-benzo[d]imidazole-6-carboxylic acid] | 0.849
O=C(O)c1ccc2nc(CN3CCN(c4cccc(OCc5nc6ccccc6s5)n4)CC3)n(C[C@@H]3CCO3)c2c1 [Compound 69, (S)-2-((4-(6-(benzo[d]thiazol-2-ylmethoxy)pyridin-2-yl)piperazin-1-yl)methyl)-1-(oxetan-2-ylmethyl)-1H-benzo[d]imidazole-6-carboxylic acid] | 0.394
O=C(O)c1ccc2nc(CN3CCN(c4cccc(OCc5ccc6ccccc6c5)n4)CC3)n(C[C@@H]3CCO3)c2c1 [Compound 70, (S)-2-((4-(6-(naphthalen-2-ylmethoxy)pyridin-2-yl)piperazin-1-yl)methyl)-1-(oxetan-2-ylmethyl)-1H-benzo[d]imidazole-6-carboxylic acid] | 1.19
Cn1c(COc2cccc(N3CCN(Cc4nc5ccc(C(=O)O)cc5n4C[C@@H]4CCO4)CC3)n2)nc2ccccc21 [Compound 71, (S)-2-((4-(6-((1-methyl-1H-benzo[d]imidazol-2-yl)methoxy)pyridin-2-yl)piperazin-1-yl)methyl)-1-(oxetan-2-ylmethyl)-1H-benzo[d]imidazole-6-carboxylic acid] | 15.7
N#Cc1ccc2c(c1)CCCN(c1cccc(N3CCN(Cc4nc5ccc(C(=O)O)cc5n4C[C@@H]4CCO4)CC3)n1)C2 [Compound 74, (S)-2-((4-(6-(7-cyano-1,3,4,5-tetrahydro-2H-benzo[c]azepin-2-yl)pyridin-2-yl)piperazin-1-yl)methyl)-1-(oxetan-2-ylmethyl)-1H-benzo[d]imidazole-6-carboxylic acid] | 141
O=C(O)c1ccc2nc(CN3CCN(c4cccc(OCc5ccc6ncoc6c5)n4)CC3)n(C[C@@H]3CCO3)c2c1 [Compound 75, (S)-2-((4-(6-(benzo[d]oxazol-6-ylmethoxy)pyridin-2-yl)piperazin-1-yl)methyl)-1-(oxetan-2-ylmethyl)-1H-benzo[d]imidazole-6-carboxylic acid] | 2.17
N#Cc1ccc2c(c1)CCCN2c1cccc(N2CCN(Cc3nc4ccc(C(=O)O)cc4n3C[C@@H]3CCO3)CC2)n1 [Compound 76, (S)-2-((4-(6-(6-cyano-3,4-dihydroquinolin-1(2H)-yl)pyridin-2-yl)piperazin-1-yl)methyl)-1-(oxetan-2-ylmethyl)-1H-benzo[d]imidazole-6-carboxylic acid] | > 500
N#Cc1ccc2c(c1)CN(c1cccc(N3CCN(Cc4nc5ccc(C(=O)O)cc5n4C[C@@H]4CCO4)CC3)n1)CC2 [Compound 77, (S)-2-((4-(6-(7-cyano-3,4-dihydroisoquinolin-2(1H)-yl)pyridin-2-yl)piperazin-1-yl)methyl)-1-(oxetan-2-ylmethyl)-1H-benzo[d]imidazole-6-carboxylic acid] | 117
N#Cc1cccc2c1CCCN(c1cccc(N3CCN(Cc4nc5ccc(C(=O)O)cc5n4C[C@@H]4CCO4)CC3)n1)C2 [Compound 78, (S)-2-((4-(6-(6-cyano-1,3,4,5-tetrahydro-2H-benzo[c]azepin-2-yl)pyridin-2-yl)piperazin-1-yl)methyl)-1-(oxetan-2-ylmethyl)-1H-benzo[d]imidazole-6-carboxylic acid] | 56.2
N#Cc1cccc2c1CCN(c1cccc(N3CCN(Cc4nc5ccc(C(=O)O)cc5n4C[C@@H]4CCO4)CC3)n1)CC2 [Compound 79, (S)-2-((4-(6-(6-cyano-1,2,4,5-tetrahydro-3H-benzo[d]azepin-3-yl)pyridin-2-yl)piperazin-1-yl)methyl)-1-(oxetan-2-ylmethyl)-1H-benzo[d]imidazole-6-carboxylic acid] | 206
NC(=O)c1cnc(COc2cccc(N3CCN(Cc4nc5ccc(C(=O)O)cc5n4C[C@@H]4CCO4)CC3)n2)nc1 [Compound 81, (S)-2-((4-(6-((5-carbamoylpyrimidin-2-yl)methoxy)pyridin-2-yl)piperazin-1-yl)methyl)-1-(oxetan-2-ylmethyl)-1H-benzo[d]imidazole-6-carboxylic acid] | 207
O=C(O)c1ccc2nc(CN3CCN(c4cccc(OCc5ccc6ccccc6n5)n4)CC3)n(C[C@@H]3CCO3)c2c1 [Compound 82, (S)-1-(oxetan-2-ylmethyl)-2-((4-(6-(quinolin-2-ylmethoxy)pyridin-2-yl)piperazin-1-yl)methyl)-1H-benzo[d]imidazole-6-carboxylic acid] | 2.78
N#Cc1ccc(COc2cccc(C3CCN([C@@H]4CCCn5c4nc4ccc(C(=O)O)cc45)CC3)n2)c(F)c1 [Compound 87, (R)-4-(4-(6-((4-cyano-2-fluorobenzyl)oxy)pyridin-2-yl)piperidin-1-yl)-1,2,3,4-tetrahydrobenzo[4,5]imidazo[1,2-a]pyridine-8-carboxylic acid] | > 500
N#Cc1ccc(COc2cccc(C3CCN([C@H]4CCCn5c4nc4ccc(C(=O)O)cc45)CC3)n2)c(F)c1 [Compound 89, (S)-4-(4-(6-((4-cyano-2-fluorobenzyl)oxy)pyridin-2-yl)piperidin-1-yl)-1,2,3,4-tetrahydrobenzo[4,5]imidazo[1,2-a]pyridine-8-carboxylic acid] | 76.2
N#Cc1ccc(COc2cccc(C3CCN([C@H]4CCCCn5c4nc4ccc(C(=O)O)cc45)CC3)n2)c(F)c1 [Compound 91, (S)-6-(4-(6-((4-cyano-2-fluorobenzyl)oxy)pyridin-2-yl)piperidin-1-yl)-7,8,9,10-tetrahydro-6H-benzo[4,5]imidazo[1,2-a]azepine-2-carboxylic acid] | 17.3
